Where two headings read alike, the source gives them in different places. Numbered stars: 1 amine (or outer) side, 2 acyl side, 3 side chain; on linkers, the order of the positions; unused ones are H or OH. Square brackets hold non-standard residues; d marks the D form. Peptide text beside a SMILES is read from it. * marks the point of attachment. Exatecan = CC[C@@]1(O)C(=O)OCc2c1cc1n(c2=O)Cc2c-1nc1cc(F)c(C)c3c1c2[C@@H](N*)CC3; Hexanoyl(6-maleimido) = O=C1C=CC(=O)N1CCCCCC(=O)*; NHCH2OCH2CO = O=C(COCN[*:1])[*:2]
Columns and labels:
Experiment in all cases: Cell viability assay (CELLCOUNTING-LITE)
Type in all cases: cell-based
Jurkat = tested on: Jurkat
Method: (§1) Cancerous cells (5,000/well) were seeded in a culture media in a 96-well flat-bottom plate. A compound was prepared by a 3-fold serial dilution and added into each cell solutions. The cells were incubated for 4 or 5 days at 37° C. under 5% CO2. CELLCOUNTING-LITE was added to each well, mixed, and incubated for 10 min at room temperature. The solution in each cell was transferred to a 96-well white opaque plate for reading.

RS4; 11 = tested on: RS4; 11
Method: as §1

H322 = tested on: H322
Method: as §1

Skov-3 = tested on: Skov-3
Method: as §1

MV4; 11 = tested on: MV4; 11
Method: as §1

HT29 = tested on: HT29
Method: as §1

Hut78 = tested on: Hut78
Method: as §1

ASPC-1 = tested on: ASPC-1
Method: as §1

A375 = tested on: A375
Method: as §1

A431 = tested on: A431
Method: as §1

Ramos = tested on: Ramos
Method: as §1

T47D = tested on: T47D
Method: as §1

N87 = tested on: N87
Method: as §1

Raji = tested on: Raji
Method: as §1

MCF7 = tested on: MCF7
Method: as §1

H226 = tested on: H226
Method: as §1

KB = tested on: KB
Method: as §1

[1] = N87 cells, incubated for 4 or 5 days, Table 1, read-out: IC50

SMILES: CC[C@@]1(O)C(=O)OCc2c1cc1n(c2=O)Cc2c-1nc1cc(F)c(C)cc1c2C=NOCC(C)CNC(=O)CO (mixture of isomers) [Compound B3, N-(3-((((E/Z)—((S)-4-Ethyl-8-fluoro-4-hydroxy-9-methyl-3,14-dioxo-3,4,12,14-tetrahydro-1H-pyrano[3′,4′:6,7]indolizino[1,2-b]quinolin-11-yl)methylene)amino)oxy)-2-methyl-propyl)-2-hydroxyacetamide]
- IC50 (Jurkat; Homo sapiens, Jurkat): 1.2 nM
- IC50 (RS4; 11; Homo sapiens, RS4-11): 0.73 nM
- IC50 (H322; NCI-H322): 3.9 nM
- IC50 (Skov-3; Homo sapiens, SK-OV-3): 3.4 nM
- IC50 (MV4; 11; Homo sapiens, MV4-11): 10 nM
- IC50 (HT29; Homo sapiens, HT-29): 13 nM
- IC50 (Hut78; Homo sapiens, HuT78): 7 nM
- IC50 (ASPC-1; Homo sapiens, ASPC1): 25 nM
- IC50 (A375; Homo sapiens, A-375): 5.9 nM
- IC50 (A431; Homo sapiens, A-431): 10 nM
- IC50 (Ramos; Homo sapiens, Ramos): 7.2 nM
- IC50 (T47D; Homo sapiens, T47D): 1.3 nM
- IC50 (N87): 7 nM
- IC50 (Raji; Homo sapiens, Raji): 0.32 nM
- IC50 (MCF7; Homo sapiens, MCF7): 21 nM
- IC50 (H226; Homo sapiens, NCI-H226): 401 nM
- IC50 (KB; Homo sapiens, KB): 18 nM

SMILES: CC[C@@]1(O)C(=O)OCc2c1cc1n(c2=O)Cc2c-1nc1cc(F)c(C)cc1c2C=NOCCNC(=O)CO [Compound B1, (S,E/Z)—N-(2-((((4-Ethyl-8-fluoro-4-hydroxy-9-methyl-3,14-dioxo-3,4,12,14-tetrahydro-1H-pyrano[3′,4′:6,7]indolizino[1,2-b]quinolin-11-yl)methylene)amino)oxy)ethyl)-2-hydroxyacetamide]
- IC50 (Jurkat; Homo sapiens, Jurkat): 3 nM
- IC50 (RS4; 11; Homo sapiens, RS4-11): 1.1 nM
- IC50 (H322; NCI-H322): 12 nM
- IC50 (Skov-3; Homo sapiens, SK-OV-3): 9.8 nM
- IC50 (MV4; 11; Homo sapiens, MV4-11): 18 nM
- IC50 (HT29; Homo sapiens, HT-29): 28 nM
- IC50 (Hut78; Homo sapiens, HuT78): 11 nM
- IC50 (ASPC-1; Homo sapiens, ASPC1): 54 nM
- IC50 (A375; Homo sapiens, A-375): 9.4 nM
- IC50 (A431; Homo sapiens, A-431): 18 nM
- IC50 (Ramos; Homo sapiens, Ramos): 7.8 nM
- IC50 (T47D; Homo sapiens, T47D): 2.8 nM
- IC50 (N87): 11 nM
- IC50 (Raji; Homo sapiens, Raji): 0.45 nM
- IC50 (MCF7; Homo sapiens, MCF7): 19 nM
- IC50 (H226; Homo sapiens, NCI-H226): 153 nM
- IC50 (KB; Homo sapiens, KB): 31 nM

SMILES: CC[C@@]1(O)C(=O)OCc2c1cc1n(c2=O)Cc2c-1nc1cc(F)c(C)cc1c2C=NOCCCNC(=O)CO [Compound B2, (S,E/Z)—N-(3-((((4-ethyl-8-fluoro-4-hydroxy-9-methyl-3,14-dioxo-3,4,12,14-tetrahydro-1H-pyrano[3′,4′:6,7]indolizino[1,2-b]quinolin-11-yl)methylene)amino)oxy)propyl)-2-hydroxyacetamide]
- IC50 (Jurkat; Homo sapiens, Jurkat cells, incubated for 4 or 5 days, Table 1, read-out: IC50): 2.1 nM
- IC50 (RS4; 11; Homo sapiens, RS4, 11 cells, incubated for 4 or 5 days, Table 1, read-out: IC50): 0.88 nM
- IC50 (H322; NCI-H322, H322 cells, incubated for 4 or 5 days, Table 1, read-out: IC50): 12 nM
- IC50 (Skov-3; Homo sapiens, SK-OV-3, Skov-3 cells, incubated for 4 or 5 days, Table 1, read-out: IC50): 11 nM
- IC50 (MV4; 11; Homo sapiens, MV4, 11 cells, incubated for 4 or 5 days, Table 1, read-out: IC50): 14 nM
- IC50 (HT29; Homo sapiens, HT-29, HT29 cells, incubated for 4 or 5 days, Table 1, read-out: IC50): 16 nM
- IC50 (Hut78; Homo sapiens, Hut78 cells, incubated for 4 or 5 days, Table 1, read-out: IC50): 9.1 nM
- IC50 (ASPC-1; Homo sapiens, ASPC1, ASPC-1 cells, incubated for 4 or 5 days, Table 1, read-out: IC50): 40 nM
- IC50 (A375; Homo sapiens, A-375, A375 cells, incubated for 4 or 5 days, Table 1, read-out: IC50): 6.9 nM
- IC50 (A431; Homo sapiens, A-431, A431 cells, incubated for 4 or 5 days, Table 1, read-out: IC50): 9.8 nM
- IC50 (Ramos; Homo sapiens, Ramos cells, incubated for 4 or 5 days, Table 1, read-out: IC50): 6.6 nM
- IC50 (T47D; Homo sapiens, T47D cells, incubated for 4 or 5 days, Table 1, read-out: IC50): 2.4 nM
- IC50 (N87; [1]): 9.1 nM
- IC50 (Raji; Homo sapiens, Raji cells, incubated for 4 or 5 days, Table 1, read-out: IC50): 0.58 nM
- IC50 (MCF7; Homo sapiens, MCF7 cells, incubated for 4 or 5 days, Table 1, read-out: IC50): 9.2 nM
- IC50 (H226; Homo sapiens, NCI-H226, H226 cells, incubated for 4 or 5 days, Table 1, read-out: IC50): 113 nM
- IC50 (KB; Homo sapiens, KB cells, incubated for 4 or 5 days, Table 1, read-out: IC50): 19 nM

SMILES: CC[C@@]1(O)C(=O)OCc2c1cc1n(c2=O)Cc2c-1nc1cc(F)c(C)c3c1c2[C@@H](NC(=O)COCNC(=O)CNC(=O)[C@H](Cc1ccccc1)NC(=O)CNC(=O)CNC(=O)CCCCCN1C(=O)C=CC1=O)CC3 [Deruxtecan, reference compound] ({Hexanoyl(6-maleimido)}-GGFG[NHCH2OCH2CO]-Exatecan)
- IC50 (Jurkat; Jurkat cells, incubated for 4 or 5 days, Table 1, read-out: IC50): 2.3 nM
- IC50 (RS4; 11; RS4, 11 cells, incubated for 4 or 5 days, Table 1, read-out: IC50): 0.65 nM
- IC50 (H322; H322 cells, incubated for 4 or 5 days, Table 1, read-out: IC50): 8.2 nM
- IC50 (Skov-3; Skov-3 cells, incubated for 4 or 5 days, Table 1, read-out: IC50): 9.8 nM
- IC50 (MV4; 11; MV4, 11 cells, incubated for 4 or 5 days, Table 1, read-out: IC50): 6.9 nM
- IC50 (HT29; HT29 cells, incubated for 4 or 5 days, Table 1, read-out: IC50): 13 nM
- IC50 (Hut78; Hut78 cells, incubated for 4 or 5 days, Table 1, read-out: IC50): 9.9 nM
- IC50 (ASPC-1; ASPC-1 cells, incubated for 4 or 5 days, Table 1, read-out: IC50): 29 nM
- IC50 (A375; A375 cells, incubated for 4 or 5 days, Table 1, read-out: IC50): 3.6 nM
- IC50 (A431; A431 cells, incubated for 4 or 5 days, Table 1, read-out: IC50): 7.7 nM
- IC50 (Ramos; Ramos cells, incubated for 4 or 5 days, Table 1, read-out: IC50): 3.8 nM
- IC50 (T47D; T47D cells, incubated for 4 or 5 days, Table 1, read-out: IC50): 1.9 nM
- IC50 (N87; [1]): 9.9 nM
- IC50 (Raji; Raji cells, incubated for 4 or 5 days, Table 1, read-out: IC50): 0.42 nM
- IC50 (MCF7; MCF7 cells, incubated for 4 or 5 days, Table 1, read-out: IC50): 5.7 nM
- IC50 (H226; H226 cells, incubated for 4 or 5 days, Table 1, read-out: IC50): 388 nM
- IC50 (KB; KB cells, incubated for 4 or 5 days, Table 1, read-out: IC50): 7.2 nM
